≈ marks a conversion by molar mass, not a printed value. Read-outs that look alike come from different tables or passages of the source.
Columns and labels:
[1] = tested on: Methicillin resistant Staphylococcus aureus (MRSA); assay: Antibacterial microdilution MIC, MRSA; format: cell-based; conditions: read-out: MIC MRSA
Description: (§1) Four bacterial cultures Bacillus cereus ATCC 11778, Bacillus subtilis ATCC 6633, Staphylococcus aureus ATCC 25923, and Methicillin resistant Staphylococcus aureus (MRSA) were employed as the test organisms. Minimum inhibitory concentration (MIC) values were determined using the dilution method, as described in the M07-A9,[45] as described in our previous paper.[4,46]

[2] = tested on: HepG2 (human hepatocellular carcinoma) cells; assay: In vitro cytotoxicity, HepG2; format: cell-based
Description: (§2) All types of cancer and non-tumorigenic cells were purchased from ATCC. Cytotoxicity assays against human cervical carcinoma (HelaS3; ATCC CCL2-2), human hepatocellular carcinoma (HepG2; ATCC HB-8065), human lung carcinoma (A549; ATCC CCL-185), and African green monkey kidney (Vero; ATCC CCL-81) cell lines were performed by […].[44] Cells proliferation was performed using the MTT colorimetric assay,[44] as in our previous publication.[4]

[3] = tested on: Bacillus cereus ATCC 11778; assay: Antibacterial microdilution MIC, B. cereus; format: cell-based
Description: as §1

[4] = tested on: Bacillus subtilis ATCC 6633; assay: Antibacterial microdilution MIC, B. subtilis; format: cell-based
Description: as §1

[5] = tested on: MRSA, S. aureus, B. subtilis, and B. cereus; assay: Antibacterial activity stated over all four Gram-positive strains; format: cell-based; conditions: for MIC / MIC against all bacterial strains tested: MRSA, S. aureus, B. subtilis, B. cereus taken together; for MIC: read-out: MIC against all bacterial strains tested; for fold improvement in antibacterial potency (MIC) compared to parent 1: all bacterial strains
Description: as §1

[6] = tested on: HelaS3 (human cervical carcinoma) cells; assay: In vitro cytotoxicity, HelaS3; format: cell-based; conditions: HeLa S3
Description: as §2

[7] = tested on: HelaS3, A549, and HepG2 cancer cell lines; assay: Cytotoxicity stated over the three cancer cell lines; format: cell-based, human; conditions: HelaS3, A549, HepG2 taken together; for IC50: Homo sapiens, read-out: Cytotoxicity against three cancer cell lines (IC50 values, range over lines)
Description: as §2

[8] = In vitro cytotoxicity, Vero normal cells; format: cell-based, African green monkey; conditions: African green monkey, Vero cells (kidney, non-tumorigenic)
Description: as §2

[9] = tested on: Vero (African green monkey kidney) cells; assay: In vitro cytotoxicity, Vero normal cells; format: cell-based
Description: as §2

[10] = tested on: A549 (human lung carcinoma) cells; assay: In vitro cytotoxicity, A549; format: cell-based
Description: as §2

S. aureus ATCC 25923 [11] = assay: Antibacterial microdilution MIC, S. aureus; format: cell-based; conditions: Staphylococcus aureus
Description: as §1

[12] = tested on: HelaS3 (human cervical carcinoma) cells; set-up: method as in PMID 35422182; conditions: parent xanthones, previous report, read-out: Cytotoxicity (IC50, μM) HelaS3; cited from earlier work
[13] = tested on: HepG2 (human hepatocellular carcinoma) cells; set-up: method as in PMID 35422182; conditions: parent xanthones, previous report, read-out: Cytotoxicity (IC50, μM) HepG2; cited from earlier work
[14] = tested on: Bacillus cereus ATCC 11778; set-up: method as in PMID 35422182; conditions: parent xanthones, previous report; cited from earlier work
[15] = tested on: Methicillin resistant Staphylococcus aureus (MRSA); set-up: method as in PMID 35422182; conditions: parent xanthones, previous report; cited from earlier work
[16] = tested on: Vero (African green monkey kidney) cells; set-up: method as in PMID 35422182; conditions: parent xanthones, previous report, read-out: Cytotoxicity (IC50, μM) Vero; cited from earlier work
S. aureus ATCC 25923 [17] = tested on: S. aureus ATCC 25923; set-up: method as in PMID 35422182; conditions: parent xanthones, previous report; cited from earlier work
[18] = tested on: A549 (human lung carcinoma) cells; set-up: method as in PMID 35422182; conditions: parent xanthones, previous report, read-out: Cytotoxicity (IC50, μM) A549; cited from earlier work
[19] = tested on: Bacillus subtilis ATCC 6633; set-up: method as in PMID 35422182; conditions: parent xanthones, previous report; cited from earlier work
[20] = ATCC11778, microdilution method, ATCC 11778, read-out: MIC B. cereus
[21] = ATCC6633, microdilution method, ATCC 6633, read-out: MIC B. subtilis
[22] = ATCC25923, microdilution method, ATCC 25923, read-out: MIC S. aureus

SMILES	MIC ([1]; microdilution method)	IC50 [2]	MIC [3, 20]	MIC [4, 21]	IC50 [6]	IC50 [8]	IC50 [10]	MIC (S. aureus ATCC 25923 [11]; [22])	also measured
CC(=O)Oc1ccc2c(=O)c3c(O)c4c(cc3oc2c1OC(C)=O)OC(C)C4(C)C (centres unmarked) [Compound 1a, 5,6-Diacetoxytoxyloxanthone C]	4 µg/mL (≈ 9.7 µM)	21.1 ± 1.18 µM	4 µg/mL (≈ 9.7 µM)	4 µg/mL (≈ 9.7 µM)	22.6 ± 2.02 µM	> 100 µM	12.2 ± 1.08 µM	4 µg/mL (≈ 9.7 µM)	MIC [5]: 4 µg/mL (≈ 9.7 µM); fold improvement in antibacterial potency (MIC) compared to parent 1 [5]: 32 fold; IC50 [7]: 12.2 to 22.6 µM; Cytotoxicity (IC50, μM) Vero [9]: without showing cytotoxicity
C=CC(C)(C)c1c2c(c(O)c3c(=O)c4ccc(OC(C)=O)c(OC(C)=O)c4oc13)C=CC(C)(C)O2 [Compound 2a, 5,6-Diacetoxymacluraxanthone]	8 µg/mL (≈ 16.7 µM)	24.5 ± 2.98 µM	16 µg/mL (≈ 33.4 µM)	32 µg/mL (≈ 66.9 µM)	25.6 ± 4.77 µM	10.1 ± 1.67 µM	15.7 ± 1.17 µM	16 µg/mL (≈ 33.4 µM)	MIC [5]: 8 to 32 µg/mL (≈ 16.7 to 66.9 µM); IC50 [7]: 15.7 to 25.6 µM
CC1Oc2c(c(O)c3c(=O)c4ccc(O)c(O)c4oc3c2Br)C1(C)C (centres unmarked) [Compound 1f, 4-Bromotoxyloxanthone C]	4 µg/mL (≈ 9.82 µM)	19.4 ± 1.52 µM	4 µg/mL (≈ 9.82 µM)	4 µg/mL (≈ 9.82 µM)	17.4 ± 1.75 µM	9.52 ± 1.02 µM	7.52 ± 0.36 µM	4 µg/mL (≈ 9.82 µM)	MIC [5]: 4 µg/mL (≈ 9.82 µM); fold improvement in antibacterial potency (MIC) compared to parent 1 [5]: 32 fold; Cytotoxicity (IC50, μM) Vero [9]: cytotoxic toward normal cells
CCOc1ccc2c(=O)c3c(O)c4c(cc3oc2c1OCC)OC(C)C4(C)C (centres unmarked) [Compound 1e, 5,6-Diethoxytoxyloxanthone C]	> 128 µg/mL	> 100 µM	> 128 µg/mL	> 128 µg/mL	50.4 ± 8.45 µM	> 100 µM	> 100 µM	> 128 µg/mL	MIC against all bacterial strains tested [5]: no antibacterial activity
C=CC(C)(C)c1c2c(c(O)c3c(=O)c4ccc(OC)c(OC)c4oc13)C=CC(C)(C)O2 [Compound 2d, 5,6-Dimethoxymacluraxanthone]	> 128 µg/mL	> 100 µM	> 128 µg/mL	> 128 µg/mL	> 100 µM	> 100 µM	> 100 µM	> 128 µg/mL	Cytotoxicity against three cancer cell lines (IC50 values, range over lines) [7]: no cytotoxicity
C=CC(C)(C)c1c2c(c(O)c3c(=O)c4ccc(OCC)c(OCC)c4oc13)C=CC(C)(C)O2 [Compound 2f, 5,6-Diethoxymacluraxanthone]	> 128 µg/mL	> 100 µM	> 128 µg/mL	> 128 µg/mL	> 100 µM	> 100 µM	> 100 µM	> 128 µg/mL	Cytotoxicity against three cancer cell lines (IC50 values, range over lines) [7]: no cytotoxicity
C=CC(C)(C)c1c2c(c(O)c3c(=O)c4ccc(O)c(OCC)c4oc13)C=CC(C)(C)O2 [Compound 2g, 5-Ethoxymacluraxanthone]	> 128 µg/mL	> 100 µM	> 128 µg/mL	> 128 µg/mL	> 100 µM	> 100 µM	> 100 µM	> 128 µg/mL	Cytotoxicity against three cancer cell lines (IC50 values, range over lines) [7]: no cytotoxicity
COc1ccc2c(=O)c3c(O)c4c(cc3oc2c1OC)OC(C)C4(C)C (centres unmarked) [Compound 1d, 5,6-Dimethoxytoxyloxanthone C]	> 128 µg/mL	> 100 µM	> 128 µg/mL	> 128 µg/mL	> 100 µM	> 100 µM	> 100 µM	> 128 µg/mL	MIC against all bacterial strains tested [5]: no antibacterial activity; Cytotoxicity against three cancer cell lines (IC50 values, range over lines) [7]: no cytotoxicity
C=CC(C)(C)c1c2c(c(OC(=O)CCCC)c3c(=O)c4ccc(OC(=O)CCCC)c(OC(=O)CCCC)c4oc13)C=CC(C)(C)O2 [Compound 2b, 1,5,6-Tripentanoyloxymacluraxanthone]	> 128 µg/mL	> 100 µM	> 128 µg/mL	> 128 µg/mL	55.3 ± 2.18 µM	36 ± 2.32 µM	41.8 ± 1.91 µM	> 128 µg/mL	–
C=CC(C)(C)c1c2c(c(O)c3c(=O)c4ccc(OS(C)(=O)=O)c(OS(C)(=O)=O)c4oc13)C=CC(C)(C)O2 [Compound 2c, 5,6-Dimesyloxymacluraxanthone]	> 128 µg/mL	> 100 µM	> 128 µg/mL	> 128 µg/mL	84.3 ± 7.86 µM	> 100 µM	48.8 ± 4.73 µM	> 128 µg/mL	–
CN[C@H](CC(C)C)C(=O)N[C@H]1C(=O)N[C@@H](CC(N)=O)C(=O)N[C@H]2C(=O)N[C@H]3C(=O)N[C@H](C(=O)N[C@H](C(=O)O)c4cc(O)cc(O)c4-c4cc3ccc4O)[C@H](O)c3ccc(c(Cl)c3)Oc3cc2cc(c3O[C@@H]2O[C@H](CO)[C@@H](O)[C@H](O)[C@H]2O[C@H]2C[C@](C)(N)[C@H](O)[C@H](C)O2)Oc2ccc(cc2Cl)[C@H]1O [Vancomycin, reference compound]	–	–	–	–	–	–	–	–	MIC [1]: 2 µg/mL (≈ 1.38 µM); MIC ([3]; ATCC11778, read-out: MIC B. cereus): 1 µg/mL (≈ 0.69 µM); MIC ([4]; ATCC6633, read-out: MIC B. subtilis): 2 µg/mL (≈ 1.38 µM); MIC (S. aureus ATCC 25923 [11]; ATCC25923, read-out: MIC S. aureus): 2 µg/mL (≈ 1.38 µM)
CC1Oc2cc3oc4c(O)c(O)ccc4c(=O)c3c(O)c2C1(C)C (centres unmarked) [Compound 1, Toxyloxanthone C]	–	–	–	–	–	–	–	–	IC50 [12]: 13.6 ± 1.11 µM; IC50 [13]: 20.8 ± 2.57 µM; MIC B. cereus [14]: 128 µg/mL (≈ 390 µM); MIC MRSA [15]: 128 µg/mL (≈ 390 µM); IC50 [16]: 8.52 ± 0.64 µM; MIC S. aureus (S. aureus ATCC 25923 [17]): 128 µg/mL (≈ 390 µM); IC50 [18]: 21.8 ± 4.89 µM; MIC B. subtilis [19]: 128 µg/mL (≈ 390 µM)
COc1cccc2c1C(=O)c1c(O)c3c(c(O)c1C2=O)C[C@@](O)(C(=O)CO)C[C@@H]3O[C@H]1C[C@H](N)[C@H](O)[C@H](C)O1 [Doxorubicin, reference compound]	–	0.37 ± 0.02 µM	–	–	0.29 ± 0.02 µM	1.95 ± 0.13 µM	0.48 ± 0.036 µM	–	–
C=CC(C)(C)c1c2c(c(O)c3c(=O)c4ccc(O)c(O)c4oc13)C=CC(C)(C)O2 [Compound 2, Macluraxanthone]	–	–	–	–	–	–	–	–	IC50 [12]: 1.59 ± 0.12 µM; IC50 [13]: 5.26 ± 0.41 µM; MIC B. cereus [14]: 64 µg/mL (≈ 162 µM); MIC MRSA [15]: 16 µg/mL (≈ 40.6 µM); IC50 [16]: 4.29 ± 0.6 µM; MIC S. aureus (S. aureus ATCC 25923 [17]): >128 µg/mL; IC50 [18]: 6.46 ± 0.98 µM; MIC B. subtilis [19]: 64 µg/mL (≈ 162 µM)
C=CC(C)(C)c1c2c(c(O)c3c(=O)c4ccc(O)c(OC)c4oc13)C=CC(C)(C)O2 [Compound 2e, 5-Methoxymacluraxanthone]	> 128 µg/mL	> 100 µM	> 128 µg/mL	> 128 µg/mL	> 100 µM	> 100 µM	90.5 ± 6.23 µM	> 128 µg/mL	–
CCCCC(=O)Oc1ccc2c(=O)c3c(OC(=O)CCCC)c4c(cc3oc2c1OC(=O)CCCC)OC(C)C4(C)C (centres unmarked) [Compound 1b, 1,5,6-Tripentanoyloxytoxyloxanthone C]	8 µg/mL (≈ 13.8 µM)	17.2 ± 4.5 µM	16 µg/mL (≈ 27.6 µM)	8 µg/mL (≈ 13.8 µM)	20.5 ± 4.92 µM	5.59 ± 0.36 µM	5.77 ± 2.14 µM	8 µg/mL (≈ 13.8 µM)	MIC [5]: 8 to 16 µg/mL (≈ 13.8 to 27.6 µM); Cytotoxicity (IC50, μM) Vero [9]: strong cytotoxicity
CC1Oc2cc3oc4c(OS(C)(=O)=O)c(OS(C)(=O)=O)ccc4c(=O)c3c(O)c2C1(C)C (centres unmarked) [Compound 1c, 5,6-Dimesyloxytoxyloxanthone C]	> 128 µg/mL	> 100 µM	> 128 µg/mL	> 128 µg/mL	65.3 ± 3.92 µM	> 100 µM	> 100 µM	> 128 µg/mL	MIC against all bacterial strains tested [5]: no antibacterial activity

Source: publication PMC12441791, “Structural modifications of toxyloxanthone C and macluraxanthone isolated from Maclura cochinchinensis: cytotoxicity, antibacterial activity, and in silico studies” (RSC Advances, 2025)
